In patent US9527830B2 (Merck Sharp & Dohme Corp., priority 2011, dated 2016):
pIC50: −log10 of the molar value.

target: T1, hROMK1 (Kir1.1) (Homo sapiens, UniProt P48048); assay: ^86Rb^+ Efflux Assay; assay type: cell-based; details: CHO-DHFR- cells stably expressing hROMK1; potency ranges
T1 construct: expressed in transfected cells
T1 sequence (P48048 1-391): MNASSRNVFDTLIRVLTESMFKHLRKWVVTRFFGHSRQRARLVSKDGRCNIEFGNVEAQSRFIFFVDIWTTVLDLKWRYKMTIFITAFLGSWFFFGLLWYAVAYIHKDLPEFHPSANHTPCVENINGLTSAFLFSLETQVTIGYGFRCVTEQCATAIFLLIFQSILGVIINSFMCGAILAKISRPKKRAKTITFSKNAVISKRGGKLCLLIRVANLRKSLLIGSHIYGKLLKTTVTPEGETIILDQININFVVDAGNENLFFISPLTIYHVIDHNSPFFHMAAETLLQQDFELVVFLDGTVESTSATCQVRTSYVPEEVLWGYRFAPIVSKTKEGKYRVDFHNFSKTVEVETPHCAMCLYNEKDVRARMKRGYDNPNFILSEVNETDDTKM
Method: Several assays may be used to measure functional inhibition of the ROMK channel by compounds of the instant invention. One primary assay that can be used is a functional ^86Rb^+ efflux assay that measures the ability of ROMK to permeate ^86Rb^+, in the absence or presence of test compound. Under control conditions, cells loaded with ^86Rb^+ and incubated in Rb^+-free medium display a time-dependent efflux of the isotope, the rate of which depends on number of functional channels. When cells are incubated in the presence of a channel inhibitor, efflux of ^86Rb^+ is prevented in a concentration-dependent manner, and IC50 values of inhibition by compounds can be accurately determined. This assay has been established with cell lines expressing either human, rat or dog ROMK channels, and can operate in 96- or 384-well format. Importantly, the human, rat, and dog ^86Rb^+ efflux assays can be carried out in the presence of up to 100% serum allowing, therefore, an accurate estimation of the effect of protein binding on the inhibitory activity of compounds of interest. Another ROMK functional assay makes use of the ability of thallium to permeate through open ROMK channels and increase the fluorescence of a dye previously loaded into the cells. Under control conditions, cells loaded with dye and exposed to thallium-containing medium display a time-dependent increase in fluorescence, the rate of which depends on number of functional channels. When cells are incubated in the presence of a channel inhibitor, the increase in fluorescence is attenuated in a concentration-dependent manner, and IC50 values of inhibition by compounds can be accurately determined. This assay has been established with cell lines expressing either human, or rat ROMK channels, and operates in 384-well format. Another assay for evaluation of the compounds of the instant invention and for evaluation of mechanism of action of compounds of Formula I relies on the measurement of the electrical current that is generated as potassium permeates through the channel. For these electrophysiological experiments, three different platforms, IonWorks, QPatch, or manual patch clamp, are used, depending on the experimental protocol under consideration. IonWorks operates in a 384-well format and allows accurate determination of IC50 values for inhibitors.
CHO-DHFR-cells stably expressing hROMK1 (Kir1.1) were grown at 37° C. in a 10% CO2 humidified incubator in Iscove's Modified Dulbecco's Medium (Gibco 12440) supplemented with HT Supplement, Penicillin/Streptomycin/Glutamine, G418 (500 μg/ml) and 10% FBS. Cells were seeded in Sterile and Tissue Culture Treated Packard CulturPlate White Opaque Microplates at a concentration of 5.0E5-7.0E5 cells/ml—PerkinElmer 6005680 (96-well); Corning 3707 (384 well) in complete media containing 1.5 μCi/ml Rubidium-86. Cells were incubated in 37° C.-10% CO2 incubator overnight. On the day of the experiment, the media was removed and cells washed with low K assay buffer. ^86Rb^+ efflux was initiated after addition of assay buffer±test compound followed by 35 min incubation at room temperature. ROMK-sensitive component of efflux was defined in the presence of 10 mM BaCl2. Assay buffer was removed and transferred to a plate and cells were solubilized in the presence of SDS. Radioactivity associated with assay and cell plate was determined.
• 1. Removed cell media and washed cells with low K assay buffer (126.9 mM NaCl, 4.6 mM KCl, 2 mM CaCl2, 1 mM MgCl2, 10 mM Hepes/NaOH; pH 7.4) • 200 μl for 96-well plate; 70 μl for 384-well plate • 2. Added assay buffer (121.5 mM NaCl, 10 mM KCl, 2 mM CaCl2, 1 mM MgCl2, 10 mM Hepes/NaOH; pH 7.4)±test compound to cells • 100 μl for 96-well plate; 50 μl for 384-well plate • 3. Incubated at ambient temperature (22-24° C.) for 35 min • 4.

`COC(=O)C1(CCc2ccc([N+](=O)[O-])cc2)CCN(CCc2ccc([N+](=O)[O-])cc2)CC1` [Example 1, Methyl 1,4-bis[2-(4-nitrophenyl)ethyl]piperidine-4-carboxylate] and `O=[N+]([O-])c1ccc(CCC2CCN(CCc3ccc([N+](=O)[O-])cc3)CC2)cc1` [Example 3, 1,4-bis[2-(4-Nitrophenyl)ethyl]piperidine] cannot be ordered by pIC50: no less than 6.70 for the first, no less than 6.70 for the second.

`O=[N+]([O-])c1ccc(/C=C/C2CCN(CCc3ccc([N+](=O)[O-])cc3)CC2)cc1` [Example 2, 4-[(E)-2-(4-Nitrophenyl)ethenyl]-1-[2-(4-nitrophenyl)ethyl]piperidine] and `O=C(Cc1ccc(-n2cnnn2)cc1)N1CCC(CCc2ccc([N+](=O)[O-])cc2)CC1` [Example 4, 2-(4-(1H-Tetrazol-1-yl)phenyl)-1-(4-(4-nitrophenethyl)piperidin-1-yl)ethanone] cannot be ordered by pIC50: no less than 6.70 for the first, no less than 6.70 for the second.

`O=C(Cc1ccc(-n2cnnn2)cc1)N1CCC(/C=C/c2ccc3nonc3c2)CC1` [Example 5] and `O=C1OCc2cc(/C=C/C3CCN(C(=O)Cc4ccc(-n5cnnn5)cc4)CC3)ccc21` [Example 6] cannot be ordered by pIC50: no less than 6.70 for the first, no less than 6.70 for the second.

`O=C1OCc2cc(CCC3CCN(C(=O)Cc4ccc(-n5cnnn5)cc4)CC3)ccc21` [Example 7, 5-[2-(1-{[4-(1H-Tetrazol-1-yl)phenyl]acetyl}piperidin-4-yl)ethyl]-2-benzofuran-1(3H)-one] and `Cc1c(/C=C/C2CCN(C(=O)Cc3ccc(-n4cnnn4)cc3)CC2)ccc2c1COC2=O` [Example 41, 4-Methyl-5-[(E)-2-(1-{[4-(1H-tetrazol-1-yl)phenyl]acetyl}piperidin-4-yl)ethenyl]-2-benzofuran-1(3H)-one] cannot be ordered by pIC50: no less than 6.30 for the first, no less than 6.70 for the second.

`O=C(Cc1ccc(-n2cnnn2)cc1)N1CCC(O)(CCc2ccc3nonc3c2)CC1` [Example 8, 1-{4-[2-(2,1,3-Benzoxadiazol-5-yl)ethyl]-4-hydroxypiperidin-1-yl}-2-[4-(1H-tetrazol-1-yl)phenyl]ethanone] and `N#Cc1cc(CCC2(O)CCN(C(=O)Cc3ccc(-n4cnnn4)cc3)CC2)ccc1F` [Example 13, 2-Fluoro-5-[2-(4-hydroxy-1-{[4-(1H-tetrazol-1-yl)phenyl]acetyl}piperidin-4-yl)ethyl]benzonitrile] cannot be ordered by pIC50: no less than 6.30 for the first, no less than 6.30 for the second.

`N#Cc1cc(C#CC2(O)CCN(C(=O)Cc3ccc(-n4cnnn4)cc3)CC2)ccc1F` [Example 10, 2-Fluoro-5-[(4-hydroxy-1-{[4-(1H-tetrazol-1-yl)phenyl]acetyl}piperidin-4-yl)ethynyl]benzonitrile] and `N#Cc1c(F)ccc(C#CC2(O)CCN(C(=O)Cc3ccc(-n4cnnn4)cc3)CC2)c1F` [Example 33, 2,6-Difluoro-3-[(4-hydroxy-1-{[4-(1H-tetrazol-1-yl)phenyl]acetyl}piperidin-4-yl)ethynyl]benzonitrile] cannot be ordered by pIC50: no less than 6.30 for the first, no less than 6.30 for the second.

`O=C(Cc1ccc(-n2cnnn2)cc1)N1CCC(Sc2ccc([N+](=O)[O-])cc2)CC1` [Example 12, 1-{4-[(4-Nitrophenyl)sulfanyl]piperidin-1-yl}-2-[4-(1H-tetrazol-1-yl)phenyl]ethanone] and `N#Cc1cc(CCC2(F)CCN(C(=O)Cc3ccc(-n4cnnn4)cc3)CC2)ccc1F` [Example 14, 2-Fluoro-5-[2-(4-fluoro-1-{[4-(1H-tetrazol-1-yl)phenyl]acetyl}piperidin-4-yl)ethyl]benzonitrile] cannot be ordered by pIC50: no less than 6.70 for the first, no less than 6.30 for the second.

`CCOC(=O)C1(CCc2ccc(F)c(C#N)c2)CCN(C(=O)Cc2ccc(-n3cnnn3)cc2)CC1` [Example 15, Ethyl 4-[2-(3-cyano-4-fluorophenyl)ethyl]-1-{[4-(1H-tetrazol-1-yl)phenyl]acetyl}piperidine-4-carboxylate] and `N#Cc1cc(CCC2(CO)CCN(C(=O)Cc3ccc(-n4cnnn4)cc3)CC2)ccc1F` [Example 26, 2-Fluoro-5-{2-[4-(hydroxymethyl)-1-{[4-(1H-tetrazol-1-yl)phenyl]acetyl}piperidin-4-yl]ethyl}benzonitrile] cannot be ordered by pIC50: no less than 6.30 for the first, no less than 6.30 for the second.

`Cc1cc(-n2cnnn2)ccc1CC(=O)N1CCC(O)(CCc2ccc(F)c(C#N)c2)CC1` [Example 18, 2-Fluoro-5-[2-(4-hydroxy-1-{[2-methyl-4-(1H-tetrazol-1-yl)phenyl]acetyl}piperidin-4-yl)ethyl]benzonitrile] and `N#Cc1cc(CCC2(O)CCN(C(=O)Cc3ccc(-n4cnnn4)cc3C(F)(F)F)CC2)ccc1F` [Example 31, 2-Fluoro-5-[2-(4-hydroxy-1-{[4-(1H-tetrazol-1-yl)-2-(trifluoromethyl)phenyl]acetyl}piperidin-4-yl)ethyl]benzonitrile] cannot be ordered by pIC50: no less than 6.30 for the first, no less than 6.30 for the second.

`N#Cc1cc(CCC2(C(F)F)CCN(C(=O)Cc3ccc(-n4cnnn4)cc3)CC2)ccc1F` [Example 27, 5-{2-[4-(Difluoromethyl)-1-{[4-(1H-tetrazol-1-yl)phenyl]acetyl}piperidin-4-yl]ethyl}-2-fluorobenzonitrile] and `N#Cc1cc(/C=C/C2(O)CCN(C(=O)Cc3ccc(-n4cnnn4)cc3)CC2)ccc1F` [Example 29, 2-Fluoro-5-[(E)-2-(4-hydroxy-1-{[4-(1H-tetrazol-1-yl)phenyl]acetyl}piperidin-4-yl)ethenyl]benzonitrile] cannot be ordered by pIC50: no less than 6.30 for the first, no less than 6.30 for the second.

`N#Cc1cc(CCC2(O)CCN(CCc3ccc4c(c3)COC4=O)CC2)ccc1F` [Example 30, 2-Fluoro-5-(2-{4-hydroxy-1-[2-(1-oxo-1,3-dihydro-2-benzofuran-5-yl)ethyl]piperidin-4-yl}ethyl)benzonitrile] and `N#Cc1c(F)ccc(CCC2(O)CCN(C(=O)Cc3ccc(-n4cnnn4)cc3)CC2)c1F` [Example 34, 2,6-Difluoro-3-[2-(4-hydroxy-1-{[4-(1H-tetrazol-1-yl)phenyl]acetyl}piperidin-4-yl)ethyl]benzonitrile] cannot be ordered by pIC50: no less than 6.70 for the first, no less than 6.30 for the second.

`Cc1c(C#CC2(O)CCN(C(=O)Cc3ccc(-n4cnnn4)cc3)CC2)ccc(F)c1C#N` [Example 36, 6-Fluoro-3-[(4-hydroxy-1-{[4-(1H-tetrazol-1-yl)phenyl]acetyl}piperidin-4-yl)ethynyl]-2-methylbenzonitrile] and `N#Cc1c(F)ccc(C#CC2(O)CCN(C(=O)Cc3ccc(-n4cnnn4)cc3)CC2)c1Cl` [Example 39, 2-Chloro-6-fluoro-3-[(4-hydroxy-1-{[4-(1H-tetrazol-1-yl)phenyl]acetyl}piperidin-4-yl)ethynyl]benzonitrile] cannot be ordered by pIC50: no less than 6.30 for the first, no less than 6.30 for the second.

`Cc1c(CCC2(O)CCN(C(=O)Cc3ccc(-n4cnnn4)cc3)CC2)ccc(F)c1C#N` [Example 37, 6-Fluoro-3-[2-(4-hydroxy-1-{[4-(1H-tetrazol-1-yl)phenyl]acetyl}piperidin-4-yl)ethyl]-2-methylbenzonitrile] and `N#Cc1c(F)ccc(CCC2(O)CCN(C(=O)Cc3ccc(-n4cnnn4)cc3)CC2)c1Cl` [Example 40, 2-Chloro-6-fluoro-3-[2-(4-hydroxy-1-{[4-(1H-tetrazol-1-yl)phenyl]acetyl}piperidin-4-yl)ethyl]benzonitrile] cannot be ordered by pIC50: no less than 6.30 for the first, no less than 6.30 for the second.

`O=C1OCc2cc(/C=C/C3CCN(C(=O)Cc4ccc5c(c4)COC5=O)CC3)ccc21` [Example 47, 5-[(E)-2-{1-[(1-Oxo-1,3-dihydro-2-benzofuran-5-yl)acetyl]piperidin-4-}ethenyl]-2-benzofuran-1(3H)-one] gave a pIC50 of no less than 6.30.
